From the NIST ThermoML archive (doi:10.1016/j.jct.2008.09.002)

How the values were obtained:
[1] = xn = mol fraction of the nth substance listed; details: 101.3 kPa, Liquid, Vibrating tube method
[2] = molar heat capacity at constant pressure; xn = mol fraction of the nth substance listed; details: 101.3 kPa, Liquid, Small sample (50 mg) DSC

CCCCn1cc[n+](C)c1.COS(=O)(=O)[O-] [1-butyl-3-methylimidazolium methyl sulfate] + C[N+](=O)[O-]
Details	mass density, [1] [kg/m3]	molar heat capacity at constant pressure, [2] [J/K/mol]
293.15 K, x1 = 0.0522	1158.1	122.1
293.15 K, x1 = 0.1	1168.5	136.5
293.15 K, x1 = 0.1966	1182.1	166.4
293.15 K, x1 = 0.3059	1191.3	200.5
293.15 K, x1 = 0.4061	1196.9	231.4
293.15 K, x1 = 0.5025	1200.8	261.5
293.15 K, x1 = 0.5889	1203.5	288
293.15 K, x1 = 0.6844	1205.9	317.2
293.15 K, x1 = 0.7832	1207.8	347.4
293.15 K, x1 = 0.8654	1209.1	372.6
293.15 K, x1 = 0.9289	1210	392.1
298.15 K, x1 = 0.0522	1152.1	122.4
298.15 K, x1 = 0.1	1163	137
298.15 K, x1 = 0.1966	1177.3	167
298.15 K, x1 = 0.3059	1186.9	201.3
298.15 K, x1 = 0.4061	1192.8	232.5
298.15 K, x1 = 0.5025	1196.9	262.7
298.15 K, x1 = 0.5889	1199.8	289.4
298.15 K, x1 = 0.6844	1202.2	318.9
298.15 K, x1 = 0.7832	1204.3	349.2
298.15 K, x1 = 0.8654	1205.7	374.6
298.15 K, x1 = 0.9289	1206.7	394.3
303.15 K, x1 = 0.0522	1146.1	122.8
303.15 K, x1 = 0.1	1157.5	137.5
303.15 K, x1 = 0.1966	1172.4	167.7
303.15 K, x1 = 0.3059	1182.6	202.3
303.15 K, x1 = 0.4061	1188.7	233.6
303.15 K, x1 = 0.5025	1193	263.9
303.15 K, x1 = 0.5889	1196	290.9
303.15 K, x1 = 0.6844	1198.6	320.6
303.15 K, x1 = 0.7832	1200.8	351.1
303.15 K, x1 = 0.8654	1202.3	376.7
303.15 K, x1 = 0.9289	1203.3	396.5
308.15 K, x1 = 0.0522	1140.1	123.3
308.15 K, x1 = 0.1	1152	138.1
308.15 K, x1 = 0.1966	1167.6	168.4
308.15 K, x1 = 0.3059	1178.2	203.2
308.15 K, x1 = 0.4061	1184.7	234.8
308.15 K, x1 = 0.5025	1189.2	265.1
308.15 K, x1 = 0.5889	1192.3	292.4
308.15 K, x1 = 0.6844	1195	322.2
308.15 K, x1 = 0.7832	1197.4	352.9
308.15 K, x1 = 0.8654	1199	378.7
308.15 K, x1 = 0.9289	1200	398.7
313.15 K, x1 = 0.0522	1134.1	123.8
313.15 K, x1 = 0.1	1146.5	138.7
313.15 K, x1 = 0.1966	1162.8	169.1
313.15 K, x1 = 0.3059	1173.9	204.1
313.15 K, x1 = 0.4061	1180.6	235.9
313.15 K, x1 = 0.5025	1185.3	266.3
313.15 K, x1 = 0.5889	1188.6	293.8
313.15 K, x1 = 0.6844	1191.5	323.9
313.15 K, x1 = 0.7832	1193.9	354.7
313.15 K, x1 = 0.8654	1195.6	380.8
313.15 K, x1 = 0.9289	1196.6	400.8
318.15 K, x1 = 0.0522	1128.1	124.2
318.15 K, x1 = 0.1	1141	139.1
318.15 K, x1 = 0.1966	1158	169.7
318.15 K, x1 = 0.3059	1169.5	205
318.15 K, x1 = 0.4061	1176.6	237
318.15 K, x1 = 0.5025	1181.5	267.4
318.15 K, x1 = 0.5889	1184.9	295.3
318.15 K, x1 = 0.6844	1187.9	325.6
318.15 K, x1 = 0.7832	1190.4	356.5
318.15 K, x1 = 0.8654	1192.2	382.8
318.15 K, x1 = 0.9289	1193.3	403
